Data on one molecule can be found in paper PMC5972032, “Evolution of substrate specificity in the Nucleobase-Ascorbate Transporter (NAT) protein family” (Microbial Cell, 2018).

This assay has as its target T1, UapA (Aspergillus nidulans, UniProt Q07307).
T1 construct: full-length, C-terminal GFP tag (plasmid pAN510-GFP), expressed in A. nidulans uapAΔ uapCΔ azgAΔ pabaA1 argB2; homodimer
Kind of assay: inhibition of [3H]-xanthine uptake in germinating conidiospores. The class given is cell-based. An excerpt: inhibition of [3H]-xanthine uptake in germinating conidiospores on UapA | wild-type UapA can indeed bind L-ascorbate with very low affinity, reflected in a Ki

T1 sequence (Q07307 whole entry): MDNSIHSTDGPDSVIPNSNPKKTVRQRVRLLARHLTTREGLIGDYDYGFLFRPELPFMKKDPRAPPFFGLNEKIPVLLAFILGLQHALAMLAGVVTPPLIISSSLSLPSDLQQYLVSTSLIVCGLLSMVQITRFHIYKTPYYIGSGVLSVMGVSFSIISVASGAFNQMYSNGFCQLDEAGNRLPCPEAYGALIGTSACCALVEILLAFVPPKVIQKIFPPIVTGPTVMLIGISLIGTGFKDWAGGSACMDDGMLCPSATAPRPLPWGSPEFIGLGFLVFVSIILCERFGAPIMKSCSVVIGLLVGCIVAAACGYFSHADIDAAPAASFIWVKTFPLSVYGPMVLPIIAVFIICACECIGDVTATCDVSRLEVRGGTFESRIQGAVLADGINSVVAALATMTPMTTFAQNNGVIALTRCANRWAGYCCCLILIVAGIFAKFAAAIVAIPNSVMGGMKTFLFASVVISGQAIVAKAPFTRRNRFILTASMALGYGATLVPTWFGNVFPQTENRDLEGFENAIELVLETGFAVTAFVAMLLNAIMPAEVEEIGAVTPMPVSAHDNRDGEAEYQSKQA

In general, Ki refers to the equilibrium dissociation constant of an inhibitor or competing ligand from its target. On to `O=C1O[C@H]([C@@H](O)CO)C(O)=C1O` [L-ascorbate], for which the inhibitory constant (Ki) is ~17 mM.
